From patent US20230219898A1, “COMPOUNDS AND METHODS FOR BLOCKING APOPTOSIS AND INDUCING AUTOPHAGY” (President and Fellows of Harvard College, priority 2020, published 2023)
Where two headings read alike, the source gives them in different places.

Experiments:
[1] = tested on: Human Jurkat cells; assay: Velcade-induced apoptosis of Jurkat cells, CellTiter-Glo viability; assay type: cell-based
Experimental: Human Jurkat cells were seeded in 96-well plates (20000 cells per well). Different concentrations of the compounds were added one hour prior to Velcade treatment, followed by the addition of 50 nM Velcade. After incubation for 24 hours, cell viability was measured by CellTiter-Glo Luminescent Cell Viability Assay.
The rates of cell death were measured in triplicate or quadruplicate in a 96-well or 384-well plate by using SYTOX Green Nucleic Acid Stain (Invitrogen) or ToxiLight Non-destructive Cytotoxicity BioAssay Kit (Lonza). The intensity of luminescence was determined in an EnSpire Multimode Plate Reader (PerkinElmer). Cytotoxicity is expressed as percentages of cell death per well after deducting the background signal in non-induced cells and compared to that of the maximal cell death with 100% Lysis Reagent. The rates of cell viability were determined by using CellTiter-Glo Luminescent Cell Viability Assay (Promega) following the manufacturer's protocol and the results are expressed as percentages of luminescence intensity per well after deducting the background signal in blank well and compared to that of the viability in the non-treated wells. Concentration of drugs used for inducing or inhibiting cell death, mTNFα: 1 ng/ml; 5Z-7-Oxozeaenol: 0.5 μM; Velcade: 50 nM; Apt-1/ICCB-19/ICCB-19i/Nec-1s: 10 μM.

[2] = biological target: T1, TRADD-N (Homo sapiens, UniProt Q15628); assay: STD-NMR binding to TRADD-N; details: 1 mM compound, 13 μM TRADD-N
T1 construct: expression constructs encoding Flag-TRADD-N(1-179) and HA-TRADD-C(180-312); His (N); made in house
T1 sequence (Q15628 1-179): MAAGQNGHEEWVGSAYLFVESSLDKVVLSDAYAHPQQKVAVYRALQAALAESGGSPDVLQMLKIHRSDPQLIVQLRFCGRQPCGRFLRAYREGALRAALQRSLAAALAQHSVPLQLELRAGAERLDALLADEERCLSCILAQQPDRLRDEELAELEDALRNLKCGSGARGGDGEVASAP
Experimental: The on-resonance irradiation of TRADD-N was performed at a chemical shift of −0.5 ppm, whereas the off-resonance irradiation was conducted at 37 ppm. Spectra were acquired using the following parameters: spectral window of 6.4 kHz, number of scans at 320, acquisition time of 2 s, and repetition time of 3 s. The decrease in signal intensity in STD spectrum, resulting from the transfer of saturation from the protein to the ligand, is evaluated by subtracting the on-resonance spectrum from the off-resonance spectrum. This subtraction yields a positive signal from a bound ligand. The asterisks indicate the signals of the compounds.
This saturation quickly propagates throughout the protein by spin diffusion and is transferred to the ligand, which only occurs if it is bound, leading to reduced intensities of the ligand. The STD spectra were acquired on a 400 MHz spectrometer (ICCB-19 and Apt-1) or 800 MHz spectrometer (ICCB-19i). The samples for STD NMR were prepared as 13 μM TRADD-N or TRADD-N(G121A) with 1 mM Apt-1, ICCB-19 or ICCB-19i in 0.5 mL of PBS in D2O (10%). […] The decrease in signal intensity in STD spectrum, resulting from the transfer of saturation from the protein to the ligand, is evaluated by subtracting the on-resonance spectrum from the off-resonance spectrum.

[3] = tested on: mTOR; assay: mTOR signalling immunoblotting in MEFs; assay type: cell-based, mouse; details: 10 μM
Source text: Cell lysates analyzed by immunoblotting using indicated antibodies.

[4] = tested on: MEFs; assay: Necroptosis of MEFs induced by TNFα/5z7/zVAD; assay type: cell-based, mouse; details: 10 μM
Experimental: The concentrations of reagents used: mTNFα: 1 ng/mL; (5Z)-7-oxozeaenol: 0.5 μM; zVAD: 20 μM; ICCB-19: 10 μM; Apt-1: 10 μM; Nec-1s: 10 μM. Mean s.d. from technical triplicates (n=3), representative of 3 independent experiments.

[5] = tested on: Htt-103Q, α-synuclein and tau expressing cells; assay: Misfolded protein accumulation and cell death in cell models (Htt-103Q, α-synuclein, tau); assay type: cell-based; details: 10 μM
Experimental: Nuclei were labeled with DAPI. The amount of Htt-Q103-EGFP aggregates per mm^2 was quantified using ImageJ. Scale bar is 100 μm. Cell viability was measured by CellTiter-Glo assay. Survival rate is compared with vehicle-treated cells. Mean ±s.d. from technical triplicates (n=3), representative of 3 independent experiments. One-way ANOVA, post hoc Dunnett's tests. ***P<0.001; n.s. not significant, (P=0.8556, 0.9195, 0.8613, 0.5687, 0.5304, 0.9998, 0.6029, 0.2821 (left to right)).
RFP-α-Synuclein was quantified by Fluorescence/Cell (RLU) by ImageJ.
Mean ±s.d. from technical triplicates (n=3), representative of 3 independent experiments. Two-way ANOVA, post hoc Bonferroni's tests. ***P<0.001; *P=0.0262, 0.0367 (left to right).
Mean ±s.d. from technical triplicates (n=3), representative of 3 independent experiments. Two-way ANOVA, post hoc Bonferroni's tests.

[6] = tested on: MEFs, BV2 cells, BMDMs; assay: Inflammatory responses in cells stimulated with TNFα or PAMPs; assay type: cell-based; details: 10 μM
Experimental: The protein levels of iNOS and Cox2 were determined by immunoblotting.
TNFα production was determined by ELISA.
The cells were then treated with Apt-1 (10 μM) or Nec-1s (10 μM) for 1 h and MDP (10 μg/ml) was added to cells directly and treated for 8 h. TNFα production was determined by ELISA. Mean ±s.d. from technical triplicates (n=3), representative of 3 independent experiments.

[7] = FIG. 5b, Velcade 50 nM, 24 h, read-out: IC50 of inhibition of Velcade-induced apoptosis
[8] = Table 3, 50 nM Velcade, 24 hours, read-out: Jurkat Velcade IC50/μM

Row | IC50 ([1]; Table 1, 50 nM Velcade, 24 hours, read-out: Apoptosis of Jurkat cells induced by Velcade (IC50 μM)) | Compound | IC50 [1, 7] | IC50 [1, 8] | binding with TRADD-N by STD-NMR [2] | effect on mTOR [3] | inhibition of necroptosis [4] | protein accumulation and cell death with Htt-103Q, α-synuclein, tau [5] | production of inflammatory target genes and inflammatory cytokines [6]
1 | 1.1 µM | O=C(CSC1=NCCN1)NC1CCCCCC1 [ICCB-19] | ~1 µM | 1.12 µM | could bind with TRADD-N | no effect on mTOR | partially inhibited | reduced protein accumulation and cell death | reduced production
2 | – | CN1CCN=C1SC(C(=O)NC1CCCCCC1)c1ccccc1 (stereo not drawn) [Compound 30] | ~1 µM | 0.799 µM | could bind with TRADD-N | no effect on mTOR | partially inhibited | reduced protein accumulation and cell death | reduced production
